# Measured values from PubChem BioAssay (NCI).
#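 All cell lines were grown in 96-well plates and treated with compound for 48 hours. At the GI50, growth is halved. At the TGI there is no net growth.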
# Tests used:
# Assay in all cases: NCI anticancer screen, dose series, 48 h
# [1] = tested on: SK-MEL-5 melanoma
# [2] = tested on: UO-31 renal
# [3] = tested on: SR leukemia
# [4] = tested on: LOX IMVI melanoma
# [5] = tested on: SF-268 CNS
# [6] = tested on: HOP-62 NSCLC
# [7] = tested on: HCT-116 colon
# [8] = tested on: SK-MEL-2 melanoma
# [9] = tested on: SF-539 CNS
# [10] = tested on: SK-MEL-28 melanoma
# [11] = tested on: NCI-H23 lung
# [12] = tested on: M14 melanoma
# [13] = tested on: IGROV1 ovarian
# [14] = tested on: MDA-MB-231 breast
# [15] = tested on: OVCAR-5 ovarian
# [16] = tested on: HL-60(TB) leukemia
# [17] = tested on: SN12C renal
# [18] = tested on: K-562 leukemia
# [19] = tested on: U251 CNS
# [20] = tested on: OVCAR-3 ovarian
# [21] = tested on: T-47D breast
# [22] = tested on: SNB-19 CNS
# [23] = tested on: NCI-H460 lung
# [24] = tested on: PC-3 prostate
# [25] = tested on: CCRF-CEM leukemia
# [26] = tested on: UACC-257 melanoma
# [27] = tested on: HOP-92 NSCLC
# [28] = tested on: A498 renal
# [29] = tested on: SNB-75 CNS
# [30] = tested on: KM12 colon
# [31] = tested on: DU-145 prostate
# [32] = tested on: SK-OV-3 ovarian
# [33] = tested on: HT29 colon
# [34] = tested on: BT-549 breast
# [35] = tested on: NCI/ADR-RES ovarian
# [36] = tested on: HCT-15 colon
# [37] = tested on: OVCAR-4 ovarian
# [38] = tested on: MCF7 breast
# [39] = tested on: ACHN renal
# [40] = tested on: 786-0 renal
# [41] = tested on: UACC-62 melanoma
# [42] = tested on: SW-620 colon
# [43] = tested on: TK-10 renal
# [44] = tested on: MOLT-4 leukemia
# [45] = tested on: OVCAR-8 ovarian
# [46] = tested on: NCI-H226 lung
# [47] = tested on: A549 NSCLC
# [48] = tested on: COLO 205 colon
# [49] = tested on: RXF 393 renal
# [50] = tested on: MALME-3M melanoma
# [51] = tested on: SF-295 CNS
# [52] = tested on: RPMI-8226 leukemia
# [53] = tested on: NCI-H522 lung
# [54] = tested on: MDA-MB-435
# [55] = tested on: HCC-2998 colon
# [56] = tested on: EKVX NSCLC
# [57] = tested on: CAKI-1 renal
# [58] = tested on: HS 578T breast
smiles,measurement,setting,value
COc1ccc(/C=C2/CCOC2=O)cc1,GI50,[1],> 100 µM
same,TGI,[1],> 100 µM
same,GI50,[2],49.8 µM
same,TGI,[2],> 100 µM
same,GI50,[3],> 100 µM
same,TGI,[3],> 100 µM
same,GI50,[4],> 100 µM
same,TGI,[4],> 100 µM
same,GI50,[5],> 100 µM
same,TGI,[5],> 100 µM
same,GI50,[6],> 100 µM
same,TGI,[6],> 100 µM
same,GI50,[7],> 100 µM
same,TGI,[7],> 100 µM
same,GI50,[8],> 100 µM
same,TGI,[8],> 100 µM
same,GI50,[9],> 100 µM
same,TGI,[9],> 100 µM
same,GI50,[10],> 100 µM
same,TGI,[10],> 100 µM
same,GI50,[11],> 100 µM
same,TGI,[11],> 100 µM
same,GI50,[12],> 100 µM
same,TGI,[12],> 100 µM
same,GI50,[13],> 100 µM
same,TGI,[13],> 100 µM
same,GI50,[14],> 100 µM
same,TGI,[14],> 100 µM
same,GI50,[15],> 100 µM
same,TGI,[15],> 100 µM
same,GI50,[16],> 100 µM
same,TGI,[16],> 100 µM
same,GI50,[17],> 100 µM
same,TGI,[17],> 100 µM
same,GI50,[18],> 100 µM
same,TGI,[18],> 100 µM
same,GI50,[19],> 100 µM
same,TGI,[19],> 100 µM
same,GI50,[20],> 100 µM
same,TGI,[20],> 100 µM
same,GI50,[21],> 100 µM
same,TGI,[21],> 100 µM
same,GI50,[22],> 100 µM
same,TGI,[22],> 100 µM
same,GI50,[23],> 100 µM
same,TGI,[23],> 100 µM
same,GI50,[24],> 100 µM
same,TGI,[24],> 100 µM
same,GI50,[25],> 100 µM
same,TGI,[25],> 100 µM
same,GI50,[26],> 100 µM
same,TGI,[26],> 100 µM
same,GI50,[27],> 100 µM
same,TGI,[27],> 100 µM
same,GI50,[28],14.9 µM
same,TGI,[28],> 100 µM
same,GI50,[29],> 100 µM
same,TGI,[29],> 100 µM
same,GI50,[30],> 100 µM
same,TGI,[30],> 100 µM
same,GI50,[31],> 100 µM
same,TGI,[31],> 100 µM
same,GI50,[32],> 100 µM
same,TGI,[32],> 100 µM
same,GI50,[33],> 100 µM
same,TGI,[33],> 100 µM
same,GI50,[34],> 100 µM
same,TGI,[34],> 100 µM
same,GI50,[35],> 100 µM
same,TGI,[35],> 100 µM
same,GI50,[36],> 100 µM
same,TGI,[36],> 100 µM
same,GI50,[37],> 100 µM
same,TGI,[37],> 100 µM
same,GI50,[38],> 100 µM
same,TGI,[38],> 100 µM
same,GI50,[39],> 100 µM
same,TGI,[39],> 100 µM
same,GI50,[40],> 100 µM
same,TGI,[40],> 100 µM
same,GI50,[41],> 100 µM
same,TGI,[41],> 100 µM
same,GI50,[42],> 100 µM
same,TGI,[42],> 100 µM
same,GI50,[43],> 100 µM
same,TGI,[43],> 100 µM
same,GI50,[44],> 100 µM
same,TGI,[44],> 100 µM
same,GI50,[45],> 100 µM
same,TGI,[45],> 100 µM
same,GI50,[46],> 100 µM
same,TGI,[46],> 100 µM
same,GI50,[47],> 100 µM
same,TGI,[47],> 100 µM
same,GI50,[48],> 100 µM
same,TGI,[48],> 100 µM
same,GI50,[49],> 100 µM
same,TGI,[49],> 100 µM
same,GI50,[50],> 100 µM
same,TGI,[50],> 100 µM
NC(N)=N/N=C/c1c(-c2ccc(Cl)c(Cl)c2Cl)nc2sccn12,TGI,[2],2.82 µM
same,TGI,[10],3.12 µM
same,TGI,[11],2.65 µM
same,TGI,[14],2.47 µM
same,TGI,[24],> 100 µM
same,TGI,[26],3.02 µM
same,TGI,[28],2.3 µM
same,TGI,[31],3.12 µM
same,TGI,[32],3.33 µM
same,TGI,[39],> 100 µM
same,TGI,[41],2.81 µM
same,TGI,[42],3.07 µM
same,TGI,[43],2.7 µM
same,TGI,[46],3.56 µM
same,TGI,[51],3.29 µM
same,TGI,[48],2.73 µM
COc1ccc(OC)c(-c2cn3nc(-c4c[nH]c5ccc(Br)cc45)sc3n2)c1,GI50,[1],3.86 µM
same,TGI,[1],15.2 µM
same,GI50,[2],1.67 µM
same,TGI,[2],11.2 µM
same,GI50,[52],3.19 µM
same,TGI,[52],20.4 µM
same,GI50,[5],2.7 µM
same,TGI,[5],7.6 µM
same,GI50,[53],1.98 µM
same,TGI,[53],4.81 µM
same,GI50,[6],2.7 µM
same,TGI,[6],13.3 µM
same,GI50,[7],1.67 µM
same,TGI,[7],3.28 µM
same,GI50,[54],2.42 µM
same,TGI,[54],5.83 µM
same,GI50,[8],3.33 µM
same,TGI,[8],13.4 µM
same,GI50,[9],1.78 µM
same,TGI,[9],3.41 µM
same,GI50,[55],2.67 µM
same,TGI,[55],7.75 µM
same,GI50,[10],3.29 µM
same,TGI,[10],11.7 µM
same,GI50,[11],1.99 µM
same,TGI,[11],4.82 µM
same,GI50,[12],2.1 µM
same,TGI,[12],4.75 µM
same,GI50,[13],2.27 µM
same,TGI,[13],11.5 µM
same,GI50,[56],2.83 µM
same,TGI,[56],11.4 µM
same,GI50,[14],1.73 µM
same,TGI,[14],4.05 µM
same,GI50,[15],3.52 µM
same,TGI,[15],15.6 µM
same,GI50,[16],9.21 µM
same,TGI,[16],> 100 µM
same,GI50,[17],2.74 µM
same,TGI,[17],10 µM
same,GI50,[19],2.02 µM
same,TGI,[19],4.09 µM
same,GI50,[20],1.96 µM
same,TGI,[20],4.32 µM
same,GI50,[22],4.51 µM
same,TGI,[22],18.6 µM
same,GI50,[23],2.04 µM
same,TGI,[23],4.17 µM
same,GI50,[24],1.87 µM
same,TGI,[24],4.66 µM
same,GI50,[25],3.73 µM
same,TGI,[25],> 100 µM
same,GI50,[26],7.45 µM
same,TGI,[26],30.7 µM
same,GI50,[27],2.01 µM
same,TGI,[27],5.68 µM
same,GI50,[28],10.2 µM
same,TGI,[28],24.6 µM
same,GI50,[29],3.72 µM
same,TGI,[29],24.3 µM
same,GI50,[30],2.19 µM
same,TGI,[30],6.24 µM
same,GI50,[57],2.04 µM
same,TGI,[57],6.22 µM
same,GI50,[31],2.8 µM
same,TGI,[31],7.71 µM
same,GI50,[32],9.01 µM
same,TGI,[32],22.8 µM
same,GI50,[33],2.28 µM
same,TGI,[33],4.75 µM
same,GI50,[34],2.9 µM
same,TGI,[34],11.2 µM
same,GI50,[35],3.38 µM
same,TGI,[35],10.9 µM
same,GI50,[36],2.11 µM
same,TGI,[36],5.47 µM
same,GI50,[37],1.8 µM
same,TGI,[37],3.8 µM
same,GI50,[38],1.77 µM
same,TGI,[38],5.13 µM
same,GI50,[39],2.02 µM
same,TGI,[39],6.49 µM
same,GI50,[40],2.16 µM
same,TGI,[40],4.57 µM
same,GI50,[41],3.15 µM
same,TGI,[41],13.2 µM
same,GI50,[42],2.26 µM
same,TGI,[42],5.28 µM
same,GI50,[43],3.18 µM
same,TGI,[43],6.54 µM
same,GI50,[45],3.01 µM
same,TGI,[45],9.3 µM
same,GI50,[46],10.3 µM
same,TGI,[46],39.8 µM
same,GI50,[58],2.87 µM
same,TGI,[58],14.5 µM
same,GI50,[47],2.31 µM
same,TGI,[47],5.31 µM
same,GI50,[51],4.7 µM
same,TGI,[51],16.3 µM
same,GI50,[49],3.19 µM
same,TGI,[49],8.82 µM
same,GI50,[50],2.25 µM
same,TGI,[50],4.93 µM
